c1ccc2c(c1)Nc1ccccc1S2
solubility (mole fraction)
Conditions | 298.2 K | 308.2 K | 318.2 K | 328.2 K | 338.2 K
in ethanol | 0.00876 | 0.01 | 0.0122 | 0.0145 | –
in propylene glycol | 0.00416 | 0.0054 | 0.00656 | 0.00763 | 0.00852
in water | 1.56e-07 | 1.98e-07 | 2.52e-07 | 3.58e-07 | 4.91e-07

— BigSolDB 2.1
